We go through four molecules from patent US20070031336A1, “3H-phenoxazine derivatives suitable as near-infrared imaging agents, preparation an use thereof” (priority 2003, published 2007).

Data set [1] has as its target T1, aggregated Aβ peptide Aβ1-140 (Homo sapiens, UniProt P05067).
T1 construct: aggregated Aβ peptide Aβ1-140 in solution
In words: Binding to aggregated Aβ in solution by differential fluorescence spectroscopy. As to the method:
(§1) Binding of the agent of the invention (compound Ex. 3) to aggregated Aβ peptide Aβ1-140 in solution is investigated by differential fluorescence spectroscopy and thioflavine displacement. […] Difference spectra are recorded at different concentrations of the agent of the invention (compound Ex. 3) with the magnitude of the fluorescence shift being dependent on the concentration of aggregated Aβ. Saturation is observed at high concentrations of the agent of the invention (compound Ex. 3), and the Kd-value for the agent of the invention (compound Ex. 3) is estimated to be 0.2 μM. In another experiment, aggregated Aβ is incubated with thioflavine T, where fluorescence intensity at 460-560 nm (excitation 445 nm) represents thioflavine bound to aggregated Aβ.

Data set [2] is described as follows: UV/VIS absorption spectra. The format is physicochemical. As to the method:
(§2) UV/VIS and fluorescence spectra are recorded and analyzed. For UV/VIS spectra, a Lambda 19 spectrometer from Perkin Elmer equipped with cells of 1.000 cm pathlength is used. The scan rate is 120 nm/min. The fluorescence data are obtained on a Spex Fluorolog (I.S.A.) spectrometer equipped with a cooled R928 detector (Slit 1 mm). Quantum yields are determined by using Cresylviolett (exc. 595 nm, yield=0.54) as standard.

Another data set deals with T2, aggregated Aβ (Homo sapiens, UniProt P05067).
T2 construct: aggregated Aβ peptide Aβ1-140 in solution
T2 sequence (P05067 672-711 limits assumed): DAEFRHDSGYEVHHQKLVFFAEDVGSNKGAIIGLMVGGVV
In words: Thioflavine T displacement from aggregated Aβ. The format is binding. The settings on record: fluorescence 460-560 nm, excitation 445 nm. Here is the method:
as §1

Data set [3] is described as follows: Fluorescence spectra and quantum yield. The format is physicochemical. The settings on record: for Fluorescence φ (quantum yield): standard Cresylviolett. As to the method:
as §2

The subject of another data set is AD plaques. Briefly: In vivo near-infrared imaging in APP23 mice. Set-up: species or system mouse. The settings on record: female 16-months-old transgenic APP23 mice, 3 mg/kg i.v. As to the method: For in vivo near-infrared imaging, 10- to 24-months-old transgenic APP23 mice (3≦n≦5) and as control, non-transgenic APP23 mice of the same age (3≦n≦4) are injected intravenously (i.v.) into the tail-vein with 0.1, 1 and 3 mg/kg agent of invention (0.1, 1 and 3 mg/10 ml in 0.9% saline). Images are recorded 30, 60, 120 and 240 min after systemic administration.

For data set [4] the following is noted: exc. 595 nm; cited from earlier work.

T1 sequence (P05067 672-711 limits assumed): as above

With `CN1CCOc2cc3c(cc21)Oc1cc2c(cc1=N3)OCC[N+]=2C.F[B-](F)(F)F` [Ex. 3, 4,8-Dimethyl-3,8,9,10-tetrahydro-2H-1,6,11-trioxa-8,13-diaza-4-azonia-pentacen tetrafluoroborate], the Kd was about 200 nM in data set [1] (estimated from difference spectra, saturation at high concentrations) and 100 to 200 nM on aggregated Aβ (thioflavine concentrations 0.37 μM-3 μM, read-out: apparent binding constants). The “Change of fluorescence spectrum upon β-amyloid binding” value in data set [1] (range of 680-720 nm) was “slightly reduced fluorescence intensity”. Moreover, the figures for the “Absorption ε” value in data set [2] (solvent H2O) and in data set [2] (solvent methanol) were 61930 I/Mcm and 64570 I/Mcm, respectively. Moreover, the “Absorption λmax” value in data set [2] (solvent H2O) was determined as 650 nm; in data set [2] (solvent methanol) it was 644 nm; in data set [2] (solvent mouse serum) it was 650 nm. Moreover, at aggregated Aβ, the “Effect on fluorescence of thioflavine bound to aggregated Aβ” value is “concentration-dependent fluorescence reduction”. For the same molecule, the “Fluorescence λmax” value in data set [3] (solvent H2O), in data set [3] (solvent methanol) and in data set [3] (solvent mouse serum) was 670 nm in each case. Moreover, the “Fluorescence φ (quantum yield)” value worked out at 37% in data set [3] (solvent H2O), 61% in data set [3] (solvent methanol) and 41% in data set [3] (solvent mouse serum). The “Specific binding to AD plaques (FIG. 1)” value in the data set with AD plaques is on record as “specific binding”.
As for `N=c1ccc2nc3c(cc(N)c4ccccc43)oc-2c1` [Cresylviolett], the “Quantum yield of the standard” value in data set [4] was 0.54.
Consider `CC[N+]1=c2cc3c(cc2CCC1)=Nc1cc2c(cc1O3)N(C)CCO2.[Cl-]` [Ex. 2, 8-Ethyl-4-methyl-2,3,4,9,10,11-hexahydro-1,6-dioxa-4,13-diaza-8-azonia-pentacen chloride], for which the “Absorption ε” value in data set [2] (solvent H2O) came to 56700 I/Mcm; in data set [2] (solvent methanol) it was 67430 I/Mcm. Moreover, the “Absorption λmax” value worked out at 657 nm in data set [2] (solvent H2O), 649 nm in data set [2] (solvent methanol) and 658 nm in data set [2] (solvent mouse serum). Moreover, the “Fluorescence λmax” value in data set [3] (solvent H2O), in data set [3] (solvent methanol) and in data set [3] (solvent mouse serum) was 677 nm in each case. Moreover, the “Fluorescence φ (quantum yield)” value in data set [3] (solvent H2O) was determined as 24%; in data set [3] (solvent methanol), 61%; in data set [3] (solvent mouse serum), 28%.
As to `CN1CCOc2cc3c(cc21)Oc1cc2c(cc1=N3)SCC[N+]=2C.[Cl-]` [Ex. 4, 4,8-Dimethyl-2,3,9,10-tetrahydro-4H-1,6-dioxa-11-thia-4,13-diaza-8-azonia-pentacen chloride], the figures for the “Absorption ε” value in data set [2] (solvent H2O) and in data set [2] (solvent methanol) were 12880 I/Mcm and 13920 I/Mcm, respectively. For the same molecule, the results for the “Absorption λmax” value in data set [2] (solvent H2O), in data set [2] (solvent methanol) and in data set [2] (solvent mouse serum) were 665 nm, 659 nm and 665 nm, respectively. Besides, the “Fluorescence λmax” value in data set [3] (solvent H2O), in data set [3] (solvent methanol) and in data set [3] (solvent mouse serum) was 695 nm each time. In addition, the “Fluorescence φ (quantum yield)” value is 12% in data set [3] (solvent H2O), 28% in data set [3] (solvent methanol) and 13% in data set [3] (solvent mouse serum).
